From ChEMBL document CHEMBL1140763, “Design, synthesis, and in vitro evaluation of new naphthylnitrobutadienes with potential antiproliferative activity: toward a structure/activity correlation” (Bioorg Med Chem, 2008)
pIC50: −log10 of the molar value.

Columns and labels:
Jurkat [1] = test: Cell cycle arrest in human Jurkat cells assessed as accumulation at G2/M phase at 25 uM after 48 hrs; type: functional
HGC-27 [2] = test: Induction of apoptosis in human HGC27 cells by DAPI assay; type: functional
A549 [3] = test: Cell cycle arrest in human A549 cells assessed as accumulation at G0/G1 phase at 1.56 uM after 48 hrs; type: functional
A2780 [4] = test: Induction of apoptosis in human A2780 cells by DAPI assay; type: functional
P388 [5] = test: Cytotoxicity against mouse P388 cells after 72 hrs by Trypan blue assay; type: functional
A549 [6] = test: Induction of apoptosis in human A549 cells by DAPI assay; type: functional
A549 [7] = test: Cell cycle arrest in human A549 cells assessed as accumulation at G0/G1 phase at 6.25 uM after 48 hrs; type: functional
A549 [8] = test: Cell cycle arrest in human A549 cells assessed as accumulation at G2/M phase at 6.25 uM after 48 hrs; type: functional
A549 [9] = test: Cell cycle arrest in human A549 cells assessed as accumulation at S phase at 6.25 uM after 48 hrs; type: functional
NCI-H1299 = test: Induction of apoptosis in human H1299 cells by DAPI assay; type: functional
MDA-MB-231 [10] = test: Antiproliferative activity against human MDA-MB-231 cells by MTT assay; type: functional, cell-based
[11] = Antiproliferative activity against human H1299 cells by MTT assay; type: functional, cell-based; conditions: NCI-H1299
[12] = Cytotoxicity against human H1299 cells after 72 hrs by Trypan blue assay; type: functional, NCI-H1299
A549 [13] = test: Cell cycle arrest in human A549 cells assessed as accumulation at G2/M phase at 25 uM after 48 hrs; type: functional
MDA-MB-231 [14] = test: Induction of apoptosis in human MDA-MB-231 cells by DAPI assay; type: functional
A549 [15] = test: Cytotoxicity against human A549 cells after 72 hrs by Trypan blue assay; type: functional
Jurkat [16] = test: Cell cycle arrest in human Jurkat cells assessed as accumulation at S phase at 6.25 uM after 48 hrs; type: functional
PA-1 [17] = test: Cytotoxicity against human PA1 cells after 72 hrs by Trypan blue assay; type: functional
Jurkat [18] = test: Cell cycle arrest in human Jurkat cells assessed as accumulation at S phase at 1.56 uM after 48 hrs; type: functional
Jurkat [19] = test: Cell cycle arrest in human Jurkat cells assessed as accumulation at G0/G1 phase at 25 uM after 48 hrs; type: functional
Jurkat [20] = test: Cell cycle arrest in human Jurkat cells assessed as accumulation at S phase at 25 uM after 48 hrs; type: functional
HCT-8 [21] = test: Antiproliferative activity against human HCT8 cells by MTT assay; type: functional, cell-based
PA-1 [22] = test: Antiproliferative activity against human PA1 cells by MTT assay; type: functional, cell-based
HCT-8 [23] = test: Cytotoxicity against human HCT8 cells after 72 hrs by Trypan blue assay; type: functional
A549 [24] = test: Cell cycle arrest in human A549 cells assessed as accumulation at G2/M phase at 1.56 uM after 48 hrs; type: functional
HGC-27 [25] = test: Cytotoxicity against human HGC27 cells after 72 hrs by Trypan blue assay; type: functional
A549 [26] = test: Cell cycle arrest in human A549 cells assessed as accumulation at G0/G1 phase at 25 uM after 48 hrs; type: functional
P388 [27] = test: Effect on interstrand cross linking in DNA in mouse P388 cells at 1 uM; type: functional
P388 [28] = test: Effect on interstrand cross linking in DNA in mouse P388 cells at 0.1 uM; type: functional
PA-1 [29] = test: Induction of apoptosis in human PA1 cells by DAPI assay; type: functional
Jurkat [30] = test: Cell cycle arrest in human Jurkat cells assessed as accumulation at G0/G1 phase at 1.56 uM after 48 hrs; type: functional
Jurkat [31] = test: Cytotoxicity against human Jurkat cells after 72 hrs by Trypan blue assay; type: functional
Jurkat [32] = test: Cell cycle arrest in human Jurkat cells assessed as accumulation at G2/M phase at 6.25 uM after 48 hrs; type: functional
Jurkat [33] = test: Antiproliferative activity against human Jurkat cells by MTT assay; type: functional, cell-based
Jurkat [34] = test: Cell cycle arrest in human Jurkat cells assessed as accumulation at G2/M phase at 1.56 uM after 48 hrs; type: functional
Jurkat [35] = test: Cell cycle arrest in human Jurkat cells assessed as accumulation at G0/G1 phase at 6.25 uM after 48 hrs; type: functional
MDA-MB-231 [36] = test: Cytotoxicity against human MDA-MB-231 cells after 72 hrs by Trypan blue assay; type: functional
HCT-8 [37] = test: Induction of apoptosis in human HCT8 cells by DAPI assay; type: functional
HGC-27 [38] = test: Antiproliferative activity against human HGC27 cells by MTT assay; type: functional, cell-based
PA-1 [39] = test: Stimulation of p53 oncoprotein expression in human PA1 cells at 1.6 uM; type: functional
A2780 [40] = test: Cytotoxicity against human A2780 cells after 72 hrs by Trypan blue assay; type: functional
Jurkat [41] = test: Induction of apoptosis in human Jurkat cells by DAPI assay; type: functional
A2780 [42] = test: Antiproliferative activity against human A2780 cells by MTT assay; type: functional, cell-based
A549 [43] = test: Cell cycle arrest in human A549 cells assessed as accumulation at S phase at 1.56 uM after 48 hrs; type: functional
P388 [44] = test: Induction of apoptosis in mouse P388 cells by DAPI assay; type: functional
A549 [45] = test: Antiproliferative activity against human A549 cells by MTT assay; type: functional, cell-based
MDA-MB-231 [46] = test: Stimulation of p53 oncoprotein expression in human MDA-MB-231 cells at 0.9 uM; type: functional
P388 [47] = test: Antiproliferative activity against mouse P388 cells by MTT assay; type: functional, cell-based
A549 [48] = test: Cell cycle arrest in human A549 cells assessed as accumulation at S phase at 25 uM after 48 hrs; type: functional
A549 [49] = test: Stimulation of p53 oncoprotein expression in human A549 cells at 6 uM after 72 hrs; type: functional

COC(=O)/C(=C/C(=C\c1cccc2ccccc12)[N+](=O)[O-])SC
Activity (Jurkat [1]): 26.4% | Activity (HGC-27 [2]): 7% | Activity (A549 [3]): 46.5% | Activity (A2780 [4]): 25% | Activity (P388 [5]): 75% | Activity (A549 [6]): 60% | Activity (A549 [7]): 49% | Activity (A549 [8]): 18% | Activity (A549 [9]): 33% | Activity (NCI-H1299): 2% | pIC50 (MDA-MB-231 [10]): 6.05 | pIC50 [11]: 5.55 | Activity [12]: 14% | Activity (A549 [13]): 36.5% | Activity (MDA-MB-231 [14]): 4% | Activity (A549 [15]): 46% | Activity (Jurkat [16]): 38.3% | Activity (PA-1 [17]): 22% | Activity (Jurkat [18]): 50.3% | Activity (Jurkat [19]): 51.2% | Activity (Jurkat [20]): 22.4% | pIC50 (HCT-8 [21]): 4.90 | pIC50 (PA-1 [22]): 5.80 | Activity (HCT-8 [23]): 10% | Activity (A549 [24]): 16.6% | Activity (HGC-27 [25]): 21% | Activity (A549 [26]): 41.2% | Activity (P388 [27]): 3.5% | Activity (P388 [28]): 1.7% | Activity (PA-1 [29]): 11% | Activity (Jurkat [30]): 31.1% | Activity (Jurkat [31]): 67% | Activity (Jurkat [32]): 20.4% | pIC50 (Jurkat [33]): 5.49 | Activity (Jurkat [34]): 18.6% | Activity (Jurkat [35]): 41.3% | Activity (MDA-MB-231 [36]): 16% | Activity (HCT-8 [37]): 5% | pIC50 (HGC-27 [38]): 5.68 | Activity (PA-1 [39]): 2% | Activity (A2780 [40]): 55% | Activity (Jurkat [41]): 14% | pIC50 (A2780 [42]): 5.68 | Activity (A549 [43]): 36.9% | Activity (P388 [44]): 27% | pIC50 (A549 [45]): 5.22 | Activity (MDA-MB-231 [46]): 2% | pIC50 (P388 [47]): 5.85 | Activity (A549 [48]): 22.5% | Activity (A549 [49]): 2%

O=[N+]([O-])C(=C/c1cccc2ccccc12)/C(=C\c1cccc2ccccc12)[N+](=O)[O-]
pIC50 (MDA-MB-231 [10]): 5.03 | pIC50 (HCT-8 [21]): 5.01 | pIC50 (PA-1 [22]): 5.44 | pIC50 (Jurkat [33]): 5.55 | pIC50 (HGC-27 [38]): 5.05 | pIC50 (A2780 [42]): 5.70 | pIC50 (A549 [45]): 4.84 | pIC50 (P388 [47]): 5.68

O=C(O)c1ccc(/C=C(\C(=C/c2ccc(C(=O)O)c3ccccc23)[N+](=O)[O-])[N+](=O)[O-])c2ccccc12
pIC50 (PA-1 [22]): 3.89 | pIC50 (Jurkat [33]): 3.76 | pIC50 (A2780 [42]): 3.44 | pIC50 (P388 [47]): 3.84
